Results as given in patent US9481662B2, “Seriniquinones, melanoma-specific anticancer agents” (The Regents of the University of California, priority 2012, dated 2016).
Where two headings read alike, the source gives them in different places. Values belong to the compound of their own block, whether it stands above or below them.

Experiments:
[1] = test system: NCI-60 cell line; test: NCI-60 cell line screen; format: cell-based; conditions: Homo sapiens; mean over NCI-60 panel
Experimental: (§1) This was further supported by the fact that 1 enhanced activity in melanoma cell lines with maximum activity against MALME-3M cells (GI50 value of 60 nM). With this in hand, chemical biological methods were applied to further probe this biological response.

[2] = test system: MALME-3M cells; test: NCI-60 cell line screen, melanoma line MALME-3M; format: cell-based; conditions: Homo sapiens, maximum activity in the panel
Experimental: as §1

[3] = test system: HCT-116 cells; test: Cytotoxicity analysis (MTT/MTS) in HCT-116 colon carcinoma cells; format: cell-based, human; conditions: for IC50: Homo sapiens
From the text: Fortunately, 1 was fluorescent with excitation maxima at 250 nm (ε=20,800 cm^−1M^−1), 289 nm (ε=24,000 cm^−1M^−1) and 342 nm (ε=6900 cm^−1M^−1) and a broad emission from 490-680 nm. Using confocal microscopy, red and green fluorescence from 1 appeared in HCT-116 cells within minutes of addition (FIG. 3A). […] Time course confocal imaging studies were then combined with conventional activity MTT assays^6 to provide a detailed correlation between cellular localization and cytostatic activity.
HCT-116 colon carcinoma cells were plated in 96-well plates at 2.5×10^4 cells/well. After 24 h, the cultures were treated with a single concentration seriniquinone (1) within the range of 0.02-20.0 μM, etoposide (positive control) in the range of 0.05-50 μM or 1% DMSO (negative control). The cells were incubated for either 24 h, 48 h or 72 h. At the end of the incubation period, cultures were added with 3-(4,5-dimethylthiazol-2-yl)-5-(3-carboxymethoxyphenyl)-2-(4-sulfophenyl)-2H-tetrazolium (MTS) for 3 h. Cell viability was quantified by the ability of living cells to reduce the yellow MTS dye to a purple formazan product. Time course experiments were also conducted in HCT-116 cells. Cells were exposed to 1 over short periods (1 h, 3 h, 6 h, and 9 h) followed by incubation in drug-free media to complete a total of 24 h incubation before addition of MTS.

[4] = test system: HCT-116 cells; test: Western blot analysis of cell cycle, apoptotic and autophagy markers; format: cell-based, human
Experimental: HCT-116 cells (1×10^6 cells/mL) were seeded in 75 cm^2 cell culture flasks and, 24 h later, treated with 3 μM 1, 30 μM 1, 17 μM etoposide (positive control), or 0.3% DMSO (negative control). After 24 h incubation, cells were washed in PBS, harvested and lysed in RIPA buffer. Protein extracts were quantified by an adapted micro-method of the Lowry assay using the DC Protein Assay kit (BioRad Laboratories). Equal amounts of protein (30 μg) from each treatment were fractionated using SDS-PAGE 5-15% gel and transferred to a PVDF membrane (BioRad Laboratories). The membranes were incubated overnight at 4° C. with primary antibodies for caspase-3, cleaved caspase-3, caspase 7, cleaved caspase-7, caspase-9, cleaved caspase-9, PARP, cleaved PARP, cyclin A, cyclin B1, cyclin D1, cyclin D3, cyclin D3, cyclin E1, cyclin E2, LC3A, LC3B or dermcidin (Santa Cruz Biotech). β-actin (Abcam) was used to normalize protein loading. After washing with TBS containing 0.1% Tween-20, the membranes were incubated with the appropriate secondary antibody alkaline phosphatase conjugate (Cell Signaling Technology Inc.), followed by BCIP/NBT color development substrate (Perkin-Elmer).

[5] = test system: HCT-116 cells; test: Cell cycle and DNA fragmentation analysis (FACS / ImageStream); format: cell-based, human
Experimental: Cell cycle was analyzed by the ImageStream® cell analysis system (Amnis). Briefly, HCT-116 cells (1×10^5 cells/mL) were seeded in 24-well plates, and 24 h later, 0.3 μM 1, 3 μM 1, 30 μM 1 or 17 μM etoposide (positive control) or 1% DMSO (negative control) was added to the cultures. After 18 h or 24 h incubation, cells were recovered by treatment with 0.05% trypsin-EDTA solution (GIBCO-BRL). An 100 μL aliquot of these cells were incubated for 30 min in the dark with a hypotonic solution containing 50 μg/mL propidium iodide, 0.1% sodium citrate, and 0.1% Triton X-100. Fluorescence was measured and DNA fragmentation and cell cycle were analyzed using ModFit LT for Win32 version 3.1.

[6] = test system: DNA; test: In vitro DNA fragmentation assays; format: biochemical
[7] = test system: DCD-1L; test: Covalent labeling of DCD-1L peptide (fluorescent band on SDS-PAGE); format: binding, human; conditions: 50 μM; for covalent labeling of DCD-1L: 37° C., 24 h; for fluorescent labeling of DCD-1L fragment: PBS pH 7.2, 5% DMSO, 23° C., 24 h (FIG. 5E)
From the text: FIGS. 5A-5E: Seriniquinone (1) targets dermcidin (DCD). […] Sequence listing (FIG. 5B): […] (SEQ ID NO:3); […] (SEQ ID NO:4).
The reactivity between 1 and DCD was then examined. […] These studies now provided initial support for the formation of a unique trimeric covalent adduct, compound 15, between 1, DCD and targeted proteins such as GADPH.

[8] = test system: HCT-116 cells; test: Confocal microscopy subcellular localization; format: cell-based, human; conditions: confocal imaging with counterstains
Experimental: Confocal studies were conducted on a LSM 710 inverted confocal microscope (Zeiss) with scanning module with 3 detection channels, Plan-Apochromat 63×/1.4 na objective, diode laser (405 nm, CW pulsed, 30 mW), Ar-laser (458 nm, 488 nm, 514 nm, 25 mW), HeNe-laser (543 nm, 1 mW) and HeNe-laser (633 nm, 5 mW). For all procedures, cells were seeded 24 h prior to treatment, to allow for adequate attachment to the well or flask bottom. Cells were plated in glass-bottom dishes (MatTek Corporation) for microscopic analyses at 1×10^5 cells/mL. Compounds were added to cells under 1 mL of media from […] such that the DMSO content remained under 0.1%. […]
Colocalization studies were conducted by treating cells (HCT-116 or MALME-3M) at a density of 1×10^5 cells/cm^2 in a 35 mm glass-bottom dish (MatTek Corporation). […] After 30 min, cells were washed PBS (4×1 mL) and immediately analyzed by confocal microscope. […] The localization of seriniquinone (1) was acquired by red fluorescence with emission at 550-631 nm, while the ER-tracker was acquired by blue florescence with emission at 406-450 nm. […] After 15 min, cells were washed PBS (4×1 mL) and immediately analyzed by confocal microscope. […] The localization of seriniquinone (1) was acquired by red fluorescence with emission at 550-631 nm, while the ER-tracker was acquired by blue florescence with emission at 415-530 nm.

[9] = Stability on storage / in solution; format: physicochemical
[10] = HCT-116, Table 1, read-out: HCT 116 IC50

SMILES: O=c1c2ccccc2c(=O)c2c1sc1c(=O)c3ccccc3c(=O)c12 [Compound 1, dinaphtho[2,3-b:2′,3′-d]thiophene-5,7,12,13-tetraone]
GI50 [1]: 910 nM | LC50 (concentration giving 50% cell kill) [1]: 18600 nM | GI50 [2]: 60 nM | IC50 [3, 10]: 350 nM | IC50 ([3]; HCT-116 cells treated over 24 h period, MTT assay, read-out: IC50): 640 ± 60 nM | cleavage of caspases and PARP ([4]; HCT-116 cells): induced cleavage of caspases 3, 7 and 9 PARP | induction of autophagy (LC3A/LC3B conversion, Western blot) ([4]; HCT-116 cells, 24 h): induced autophagy | cyclin expression ([4]; HCT-116 treated cells): strong reduction in the expression of the cyclins D1, D2 and D3 | DNA fragmentation (cells with subdiploid DNA) [5]: concentration dependent DNA fragmentation | cell cycle phase of remaining cells [5]: S to G2 phase | DNA fragmentation in vitro [6]: failed to induce DNA fragmentation | covalent labeling of DCD-1L [7]: covalently label DCD-1L | fluorescent labeling of DCD-1L fragment [7]: fluorescent bands corresponding to DCD-1L | subcellular localization [8]: appeared soon after treatment in the ER

SMILES: Oc1c2ccccc2c(O)c2c1sc1c(O)c3ccccc3c(O)c12 [Compound S23]
stability in solution ([9]; in solution): oxidizes rapidly back to S22a in solution

SMILES: O=C(O)CCc1ccc2c(=O)c3c(sc4c(=O)c5ccccc5c(=O)c43)c(=O)c2c1 [acid 11, 3-(5,7,12,13-Tetraoxo-5,7,12,13-tetrahydrodinaphtho[2,3-b:2′,3′-d]-thiophen-3-yl)-propanoic acid]
covalent labeling of DCD-1L [7]: covalently label DCD-1L

storage stability of pure material ([9]; 1 month at −20° C.): significant decomposition
SMILES: CC(C)=CCCc1ccc2c(=O)c3c(sc4c(=O)c5ccccc5c(=O)c43)c(=O)c2c1 [alkene 10, 3-(4-Methylpent-3-en-1-yl)dinaphtho[2,3-b:2′,3′-d]thiophene-5,7,12,13-tetraone]
covalent labeling of DCD-1L [7]: covalently label DCD-1L | fluorescent labeling of DCD-1L fragment [7]: fluorescent bands corresponding to DCD-1L

SMILES: O=c1c2ccccc2c(=O)c2sc3c(=O)c4ccccc4c(=O)c3sc12 [p2]
HCT 116 IC50, μM ([3]; Table 1): NSA

SMILES: Nc1ccc2c(=O)c3c(sc4c(=O)c5ccc(N)cc5c(=O)c43)c(=O)c2c1 [p4]
IC50 [3, 10]: 2200 nM

SMILES: O=c1c2cc(O)ccc2c(=O)c2c1sc1c(=O)c3ccc(O)cc3c(=O)c12 [p6]
IC50 [3, 10]: 1900 nM

SMILES: O=c1c2cc(Cl)ccc2c(=O)c2c1sc1c(=O)c3ccc(Cl)cc3c(=O)c12 [p9]
IC50 [3, 10]: 550 nM

SMILES: O=C(Nc1ccc2c(=O)c3c(sc4c(=O)c5ccc(NC(=O)C(F)(F)F)cc5c(=O)c43)c(=O)c2c1)C(F)(F)F [p12]
IC50 [3, 10]: 710 nM

SMILES: CC(=O)Oc1ccc2c(=O)c3c(sc4c(=O)c5ccc(OC(C)=O)cc5c(=O)c43)c(=O)c2c1 [p14]
IC50 [3, 10]: 2100 nM

SMILES: Nc1cccc2c(=O)c3c(sc4c(=O)c5cccc(N)c5c(=O)c43)c(=O)c12 [p20]
IC50 [3, 10]: 780 nM

SMILES: O=c1c2cccc(O)c2c(=O)c2c1sc1c(=O)c3c(O)cccc3c(=O)c12 [p21]
IC50 [3, 10]: 700 nM

SMILES: O=C(Nc1cccc2c(=O)c3c(sc4c(=O)c5cccc(NC(=O)C(F)(F)F)c5c(=O)c43)c(=O)c12)C(F)(F)F [p23]
IC50 [3, 10]: 78 nM
